Measurements from article PMC7875478 (Journal of veterinary pharmacology and therapeutics, 2020).
Where two headings read alike, the source gives them in different places. Values belong to the molecule of their own block, whether it stands above or below them.

Key:
[1] = Cytochrome P450 inhibition assay with PBZ in equine liver microsomes; type: in vitro ADME; details: inhibitor 10 μM, PBZ 400 μM
[2] = Phenylbutazone metabolism in equine liver microsomes; type: in vitro ADME; details: metabolite formation from PBZ
[3] = test system: CYP2C92; test: Incubation of FM with recombinant equine CYP2C92; type: in vitro ADME
[4] = Flunixin meglumine metabolism to 5-OH flunixin in equine liver microsomes; type: in vitro ADME; details: for Vmax (or Vmax1) / Ki: 5-OH flunixin formation; for Ki: substrate inhibition model
[5] = test system: equine CYP1A1; details: 5-OH flunixin formation
[6] = test system: equine CYP3A95
[7] = test system: equine CYP3A97
[8] = test system: equine CYP3A94
[9] = test system: equine CYP3A93; details: 5-OH flunixin formation
[10] = test system: equine CYP3A97; test: Phenylbutazone metabolism to oxyphenbutazone by recombinant equine CYP3A97; type: in vitro ADME; details: oxyphenbutazone formation from PBZ
[11] = test system: equine liver microsomal P450 forming gamma-hydroxy phenylbutazone; test: Cytochrome P450 inhibition assay with PBZ in equine liver microsomes; type: in vitro ADME; details: horse, equine liver microsomes, pH 7.4
[12] = test system: recombinant CYP3A97; test: Cytochrome P450 inhibition assay with PBZ and recombinant CYP3A97; details: recombinant CYP3A97, inhibitor 10 μM, PBZ 400 μM
[13] = read-out: Km (or Km1), 5-OH flunixin formation

Oxyphenbutazone production decreased in microsomal incubations [1]: 53%
Structure (SMILES): CC(C)(O)c1ccccc1CC[C@@H](SCC1(CC(=O)O)CC1)c1cccc(/C=C/c2ccc3ccc(Cl)cc3n2)c1 [montelukast]

Km ([2]; horse 1): 29.2 µM
Km ([2]; horse 2): 79.3 µM
Structure (SMILES): CC(O)CCC1C(=O)N(c2ccccc2)N(c2ccccc2)C1=O (stereo not shown) [Gamma-hydroxy phenylbutazone, gamma-hydroxy phenylbutazone]
Best fit model [2]: Michaelis-Menten
Vmax ([2]; horse 1): 1.56 pmol/min/pmol P450
Vmax ([2]; horse 2): 0.218 pmol/min/pmol P450

Km ([4]; read-out: Km (or Km1), 5-OH flunixin formation, horse 1): 22.6 µM
Km ([4]; read-out: Km (or Km1), 5-OH flunixin formation, horse 2): 13.1 µM
Ki ([4]; horse 1): 710 µM
Ki ([4]; horse 2): 1190 µM
Km ([5]; read-out: Km (or Km1), CYP1A1, high-affinity phase): 495 µM
Km [6, 13]: 928 µM
Km [7, 13]: 4.07 µM
Km [8, 13]: 828 µM
Km ([9]; read-out: Km (or Km1), CYP3A93, high-affinity phase): 37.6 µM
Structure (SMILES): Cc1c(Nc2ncc(O)cc2C(=O)O)cccc1C(F)(F)F [5-OH flunixin, 5-hydroxy-flunixin]
Best fit model ([4]; 5-OH flunixin formation from FM): Substrate Inhibition
Vmax (or Vmax1) ([4]; horse 1): 0.613 pmol/min/pmol P450
Vmax (or Vmax1) ([4]; horse 2): 0.803 pmol/min/pmol P450
Best fit model ([5]; CYP1A1): Biphasic
Vmax (or Vmax1) ([5]; CYP1A1, high-affinity phase): 1.39 pmol/min/pmol P450
Vmax2 ([5]; CYP1A1, low-affinity phase): 0.665 pmol/min/pmol P450
Km2 ([5]; CYP1A1, second phase): 546.6 µM
Best fit model ([6]; 5-OH flunixin formation): Michaelis-Menten
Vmax (or Vmax1) ([6]; 5-OH flunixin formation): 0.675 pmol/min/pmol P450
Best fit model ([7]; 5-OH flunixin formation): Michaelis-Menten
Vmax (or Vmax1) ([7]; 5-OH flunixin formation): 0.450 pmol/min/pmol P450
Best fit model ([8]; 5-OH flunixin formation): Michaelis-Menten
Vmax (or Vmax1) ([8]; 5-OH flunixin formation): 1.39 pmol/min/pmol P450
Best fit model ([9]; CYP3A93): Biphasic
Vmax (or Vmax1) ([9]; CYP3A93, high-affinity phase): 0.148 pmol/min/pmol P450
Vmax2 ([9]; CYP3A93, low-affinity phase): 2.32 pmol/min/pmol P450
Km2 ([9]; CYP3A93, second phase): 1539.8 µM

The next lines start with the molecule.

Structure (SMILES): Cc1c(Nc2ncccc2C(=O)O)cccc1C(F)(F)F [FM, flunixin meglumine]
Generation of metabolites by CYP2C92 [3]: did not generate any measurable metabolites

Structure (SMILES): CCCCC1C(=O)N(c2ccccc2)N(c2ccc(O)cc2)C1=O (stereo not shown) [Oxyphenbutazone, oxyphenbutazone]
Best fit model [2]: Michaelis-Menten
Vmax ([2]; horse 1): 1.72 pmol/min/pmol P450
Vmax ([2]; horse 2): 0.279 pmol/min/pmol P450
Best fit model [10]: Michaelis-Menten
Vmax [10]: 2.66 pmol/min/pmol P450

Structure (SMILES): O=c1cc(-c2ccccc2)oc2c1ccc1ccccc12 [alpha-naphthoflavone]
inhibition at 30 min, 10 μM [11]: 79%
Increased production of oxyphenbutazone compared to control [12]: 150%
